In the experiment the target is T1, human macrophage elastase (HME/hMMP-12) (Homo sapiens, UniProt P39900).
T1 construct: purchased R&D Systems 917-MP
T1 sequence (P39900 106-470): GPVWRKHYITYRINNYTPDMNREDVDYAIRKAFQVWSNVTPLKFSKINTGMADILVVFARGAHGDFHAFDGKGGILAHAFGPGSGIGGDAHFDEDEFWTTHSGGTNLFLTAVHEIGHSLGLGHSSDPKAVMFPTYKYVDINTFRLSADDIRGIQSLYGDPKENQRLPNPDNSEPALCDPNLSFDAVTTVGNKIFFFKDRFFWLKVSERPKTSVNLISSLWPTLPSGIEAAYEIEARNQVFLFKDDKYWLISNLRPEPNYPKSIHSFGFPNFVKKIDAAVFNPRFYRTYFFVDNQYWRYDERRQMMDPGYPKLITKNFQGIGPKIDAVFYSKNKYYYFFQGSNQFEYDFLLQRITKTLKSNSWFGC
Kind of experiment: In vitro HME inhibition test (standard or high-sensitivity). The format is biochemical. The following applies: in some cases mean values, rounded to two significant figures. How it is done: The potency of the compounds according to the invention with respect to HME (MMP-12) is determined in an in vitro inhibition test. The HME-mediated amidolytic cleavage of a suitable peptide substrate leads to an increase in fluorescent light therein. The signal intensity of the fluorescent light is directly proportional to the enzyme activity. The active concentration of a test compound at which half the enzyme is inhibited (50% signal intensity of the fluorescent light) is reported as the IC50 value.
In a 384 hole microtiter plate, in a total test volume of 41 μl, the test buffer (0.1 M HEPES pH 7.4, 0.15 M NaCl, 0.03 M CaCl2, 0.004 mM ZnCl2, 0.02 M EDTA, 0.005% Brij®), the enzyme (0.5 nM HME; R&D Systems, 917-MP, autocatalytic activation according to the manufacturer's instructions) and the intramolecularly quenched substrate [5 μM Mca-Pro-Leu-Gly-Leu-Glu-Glu-Ala-Dap(Dnp)-NH2; Bachem, M-2670] are incubated in the absence and presence of the test substance (as a solution in DMSO) at 37° C. for two hours. The fluorescence intensity of the test mixtures is measured (excitation […], emission 393 nm). The IC50 values are ascertained by plotting the fluorescent light intensity against the active ingredient concentration.
In this case, an enzyme concentration ten times lower is used (final concentration, e.g. 0.05 nM) in order to achieve an increased test sensitivity. The incubation period chosen for the test is correspondingly longer (e.g. 16 hours).
In turn, `O=C(CC(CCn1nnc2ccccc2c1=O)C(=O)O)c1cc2cc(OCc3ccncc3)ccc2o1` (racemic) [Example 47, (+/−)-4-Oxo-2-[2-(4-oxo-1,2,3-benzotriazin-3(4H)-yl)ethyl]-4-[5-(pyridin-4-ylmethoxy)-1-benzofur-2-yl]butanoic acid] showed an IC50 of 0.94 nM. In other words, the sub-nanomolar range.
Next, `CCCCOc1ccc2c(C(=O)CC(CCn3nnc4ccccc4c3=O)C(=O)O)coc2c1` (single isomer, unassigned; (-)) [Example 109, (−)-4-(6-Butoxy-1-benzofur-3-yl)-4-oxo-2-[2-(4-oxo-1,2,3-benzotriazin-3(4H)-yl)ethyl]butanoic acid]: 10 nM.
Next, `CCCCCCCOc1ccc2cc(C(=O)CC(CCn3nnc4ccccc4c3=O)C(=O)O)oc2c1` (single isomer, unassigned; (-)) [Example 68, (−)-4-[6-(Heptyloxy)-1-benzofur-2-yl]-4-oxo-2-[2-(4-oxo-1,2,3-benzotriazin-3(4H)-yl)ethyl]butanoic acid]: 890 nM; `CCCCCCOc1ccc2cc(C(=O)CC(CCn3nnc4ccccc4c3=O)C(=O)O)oc2c1` (racemic) [Example 64, (+/−)-4-[6-(Hexyloxy)-1-benzofur-2-yl]-4-oxo-2-[2-(4-oxo-1,2,3-benzotriazin-3(4H)-yl)ethyl]butanoic acid]: 2.9 nM.
Take `CC(C)CCCOc1ccc2oc(C(=O)CC(CCn3nnc4ccccc4c3=O)C(=O)O)cc2c1` (racemic) [Example 40, (+/−)-4-{5-[(4-Methylpentyl)oxy]-1-benzofur-2-yl}-4-oxo-2-[2-(4-oxo-1,2,3-benzotriazin-3(4H)-yl)ethyl]butanoic acid]: the IC50 was found to be 4.6 nM.
Next, `CCCOc1ccc2c(C(=O)CC(CCn3nnc4ccccc4c3=O)C(=O)O)coc2c1` (single isomer, unassigned; (-)) [Example 87, (−)-4-Oxo-2-[2-(4-oxo-1,2,3-benzotriazin-3(4H)-yl)ethyl]-4-(6-propoxy-1-benzofur-3-yl)butanoic acid]: 470 nM.
Next, `COc1ccc2cc(C(=O)CC(CCn3nnc4ccc(C(F)(F)F)cc4c3=O)C(=O)O)sc2c1` (racemic) [Example 131, (+/−)-4-(6-Methoxy-1-benzothiophen-2-yl)-4-oxo-2-{2-[4-oxo-6-(trifluoromethyl)-1,2,3-benzotriazin-3(4H)-yl]ethyl}butanoic acid]: 1.2 nM; `CCCCCOc1ccc2cc(C(=O)CC(CCn3nnc4ccccc4c3=O)C(=O)O)oc2c1` (racemic) [Example 55, (+/−)-4-Oxo-2-[2-(4-oxo-1,2,3-benzotriazin-3(4H)-yl)ethyl]-4-[6-(pentyloxy)-1-benzofur-2-yl]butanoic acid]: 3.7 nM; `O=C(CC(CCn1nnc2ccccc2c1=O)C(=O)O)c1noc2cc(OCc3cccc(Cl)c3)ccc12` (racemic) [Example 146, (+/−)-4-{6-[(3-Chlorobenzyl)oxy]-1,2-benzoxazol-3-yl}-4-oxo-2-[2-(4-oxo-1,2,3-benzotriazin-3(4H)-yl)ethyl]butanoic acid]: 1.1 nM.
The compound `O=C(CC(CCn1nnc2ccccc2c1=O)C(=O)O)c1cc2cc(OCc3cccc(F)c3)ccc2o1` (racemic) [Example 43, (+/−)-4-{5-[(3-Fluorobenzyl)oxy]-1-benzofur-2-yl}-4-oxo-2-[2-(4-oxo-1,2,3-benzotriazin-3(4H)-yl)ethyl]butanoic acid] showed an IC50 of 1.3 nM.
In turn, `O=C(CC(CCn1nnc2ccccc2c1=O)C(=O)O)c1noc2cc(OCCC3CCCCC3)ccc12` (racemic) [Example 141, (+/−)-4-[6-(2-Cyclohexylethoxy)-1,2-benzoxazol-3-yl]-4-oxo-2-[2-(4-oxo-1,2,3-benzotriazin-3(4H)-yl)ethyl]butanoic acid] showed an IC50 of 0.12 nM.
Next, `O=C(CC(CCn1nnc2ccccc2c1=O)C(=O)O)c1noc2cc(OCCC3CCCCC3)ccc12` (single isomer, unassigned; enantiomer 1) [Example 142, (−)-4-[6-(2-Cyclohexylethoxy)-1,2-benzoxazol-3-yl]-4-oxo-2-[2-(4-oxo-1,2,3-benzotriazin-3(4H)-yl)ethyl]butanoic acid (enantiomer 1)]: 15 nM; `NC(=O)c1cccc(COc2ccc3c(C(=O)CC(CCn4nnc5ccccc5c4=O)C(=O)O)noc3c2)c1` (racemic) [Example 139, (+/−)-4-{6-[(3-Carbamoylbenzyl)oxy]-1,2-benzoxazol-3-yl}-4-oxo-2-[2-(4-oxo-1,2,3-benzotriazin-3(4H)-yl)ethyl]butanoic acid]: 0.58 nM; `O=C(CC(CCn1nnc2ccccc2c1=O)C(=O)O)c1cc2cc(OCCc3ccccc3)ccc2o1` (single isomer, unassigned; (-)) [Example 20, (−)-4-Oxo-2-[2-(4-oxo-1,2,3-benzotriazin-3(4H)-yl)ethyl]-4-[5-(2-phenylethoxy)-1-benzofur-2-yl]butanoic acid]: 860 nM.
The compound `CCCCCOc1ccc2c(C(=O)CC(CCn3nnc4ccccc4c3=O)C(=O)O)coc2c1` (single isomer, unassigned) [Example 90, 4-Oxo-2-[2-(4-oxo-1,2,3-benzotriazin-3(4H)-yl)ethyl]-4-[6-(pentyloxy)-1-benzofur-3-yl]butanoic acid] gave an IC50 of 81 nM.
Next, `NC(=O)c1ccc(COc2ccc3oc(C(=O)CC(CCn4nnc5ccccc5c4=O)C(=O)O)cc3c2)cc1` (racemic) [Example 35, (+/−)-4-{5-[(4-Carbamoylbenzyl)oxy]-1-benzofur-2-yl}-4-oxo-2-[2-(4-oxo-1,2,3-benzotriazin-3(4H)-yl)ethyl]butanoic acid]: 2 nM; `O=C(CC(CCn1nnc2ccccc2c1=O)C(=O)O)c1cc2cc(OCC3CCCC3)ccc2o1` (racemic) [Example 16, (+/−)-4-[5-(Cyclopentylmethoxy)-1-benzofur-2-yl]-4-oxo-2-[2-(4-oxo-1,2,3-benzotriazin-3(4H)-yl)ethyl]butanoic acid]: 24 nM.
Next, `O=C(CC(CCn1nnc2ccccc2c1=O)C(=O)O)c1cc2cc(OCc3ccccc3)ccc2o1` (racemic) [Example 28, (+/−)-4-[5-(Benzyloxy)-1-benzofur-2-yl]-4-oxo-2-[2-(4-oxo-1,2,3-benzotriazin-3(4H)-yl)ethyl]butanoic acid]: 3.1 nM.
Consider `O=C(CC(CCn1nnc2ccccc2c1=O)C(=O)O)c1noc2cc(OCCC3CCOCC3)ccc12` (racemic) [Example 149, (+/−)-4-Oxo-2-[2-(4-oxo-1,2,3-benzotriazin-3(4H)-yl)ethyl]-4-{6-[2-(tetrahydro-2H-pyran-4-yl)ethoxy]-1,2-benzoxazol-3-yl}butanoic acid], for which inhibition was half-maximal at 0.58 nM (IC50).
Next, `O=C(CC(CCn1nnc2ccccc2c1=O)C(=O)O)c1cc2cc(OCc3ccccc3F)ccc2o1` (racemic) [Example 45, (+/−)-4-{5-[(2-Fluorobenzyl)oxy]-1-benzofur-2-yl}-4-oxo-2-[2-(4-oxo-1,2,3-benzotriazin-3(4H)-yl)ethyl]butanoic acid]: 2.3 nM.
Next, `O=C(CC(CCn1nnc2ccccc2c1=O)C(=O)O)c1noc2cc(OCc3ccc(F)cc3)ccc12` (single isomer, unassigned; enantiomer 2) [Example 138, 4-{6-[(4-Fluorobenzyl)oxy]-1,2-benzoxazol-3-yl}-4-oxo-2-[2-(4-oxo-1,2,3-benzotriazin-3(4H)-yl)ethyl]butanoic acid (enantiomer 2)]: 0.33 nM; `CCCCCCOc1ccc2cc(C(=O)CC(CCn3nnc4ccccc4c3=O)C(=O)O)oc2c1` (single isomer, unassigned; (+)) [Example 66, (+)-4-[6-(Hexyloxy)-1-benzofur-2-yl]-4-oxo-2-[2-(4-oxo-1,2,3-benzotriazin-3(4H)-yl)ethyl]butanoic acid]: 2.4 nM.
As for `O=C(CC(CCn1nnc2ccccc2c1=O)C(=O)O)c1cc2ccc(OCCC3CCOCC3)cc2o1` (racemic) [Example 54, (+/−)-4-Oxo-2-[2-(4-oxo-1,2,3-benzotriazin-3(4H)-yl)ethyl]-4-{6-[2-(tetrahydro-2H-pyran-4-yl)ethoxy]-1-benzofur-2-yl}butanoic acid], the figure is 5.6 nM; as for `O=C(CC(CCn1nnc2ccccc2c1=O)C(=O)O)c1cc2cc(OCC3CCCC3)ccc2o1` (single isomer, unassigned; enantiomer 2) [Example 18, (+)-4-[5-(Cyclopentylmethoxy)-1-benzofur-2-yl]-4-oxo-2-[2-(4-oxo-1,2,3-benzotriazin-3(4H)-yl)ethyl]butanoic acid (enantiomer 2)], 6 nM.
In turn, `CCCOc1ccc2cc(C(=O)CC(CCn3nnc4ccccc4c3=O)C(=O)O)oc2c1` (single isomer, unassigned) [Example 60, 4-Oxo-2-[2-(4-oxo-1,2,3-benzotriazin-3(4H)-yl)ethyl]-4-(6-propoxy-1-benzofur-2-yl)butanoic acid] gave an IC50 of 1.8 nM. This IC50 lies about 3.3-fold lower than the previous one.
For the compound `O=C(CC(CCn1nnc2ccccc2c1=O)C(=O)O)c1cc2cc(OCc3ccc(F)cc3F)ccc2o1` (racemic) [Example 52, (+/−)-4-{5-[(2,4-Difluorobenzyl)oxy]-1-benzofur-2-yl}-4-oxo-2-[2-(4-oxo-1,2,3-benzotriazin-3(4H)-yl)ethyl]butanoic acid], the IC50 turned out to be 2.1 nM.

A word on the IC50: it is the midpoint of a concentration-inhibition curve. Low values mean inhibition by little substance, high ones a need for much substance.

The record behind these values is patent US20170121315A1, “HETEROBICYCLICALLY SUBSTITUTED 4-OXOBUTANE ACID DERIVATIVES AND USE THEREOF” (priority 2014, published 2017).
